Two compounds from US20260250741A1, “DEVELOPMENT OF CELL MEDIUM AND FEED ON MAMMALIAN CELLS” (Evonik Operations GmbH, priority 2023, published 2026) can be followed below.

The subject of series [1] is Agarabi CHO (ATCC® CRL-3440™). The conditions noted are these: 120 μM added every 48 hrs, 7 day batch culture, CD FortiCHO + 8 mM L-glutamine. How it is done:
For this experiment, a transgenic CHO cell line, Agarabi CHO (ATCC® CRL-3440™), was grown in CD FortiCHO medium supplemented with 8 mM L-glutamine at 37° C., 8% CO2, at a shaking speed of 130 RPM. Batch culture of 6 flasks was maintained for 7 days where 3 flasks represent technical replicates for the control set and 3 flasks represent technical replicates for the treatment set. The flasks were seeded with 3E5 viable cells/mL on day 0 and to induce oxidative stress, hydrogen peroxide was added every 48 hrs to the treatment set with a final concentration of 120 μM. Cell count, cell viability, and heterologous protein production were measured every 2 days and cell pellets were collected for both control and treatment set on day 7.

The subject of series [2] is Agarabi CHO (ATCC® CRL-3440™). The conditions noted are these: FDR corrected p-value <0.05 and methylation change greater than 25% between groups; cell pellets day 7.
Experimental: Genomic DNA was purified from the collected cell pellets using DNeasy Blood & Tissue Kit (Qiagen) and was quantified using PicroGreen or NanoDrop™ 2000. The genomic DNA (500 ng) from the control and treatment set were used to prepare libraries for Whole Genome Bisulfite Sequencing (WGBS). The sequencing of the libraries was performed by a third party on a NovaSeq platform which generated 125 GB of data per sample.
Raw sequencing data were conducted quality control (fastqc) 1, sequencing adaptors trimming (TrimGalore) 2, and alignment with Bismark3. CMV promoter combined with CHOK1-GS (Cricetulus griseus) genome was used as a reference genome.
Bismark was also used for removing duplicated reads and extracting methylation counts from alignment output.
Since regulated methylation targets are most commonly clustered into short regions, DMRfinder4 was used to perform a modified single-linkage clustering of methylation sites.
Differential methylation analysis was performed using MethylKit5 between the control and treatment groups. Logistic regression was used to determine the differential methylation across all regions, and the sliding linear model (SLIM) 6 method to do FDR correction.
For series [3], the system named is Agarabi CHO (ATCCR CRL-3440™). Nature of the series: WGBS differential methylation analysis, IGF-1 adapted vs control. The format is cell-based, Cricetulus griseus. The conditions noted are these: FDR corrected p-value <0.05 and methylation change greater than 25% between groups; cell pellets day 7. The method, then: With a maximum distance between CpG sites of 100 bp, 2048904 genomic regions were found for IGF-1 adapted samples.
Regions with FDR corrected p-value <0.05 and methylation change greater than 25% between groups were determined as differentially methylated regions (DMRs), which was 289 for IGF-1 adapted samples listed in Table 2.

Series [4] has as its system Agarabi CHO (ATCCR CRL-3440™). Nature of the series: Adaptation of CHO cells with media supplement, batch culture (cell count, viability, protein production). The format is cell-based, Cricetulus griseus. The conditions noted are these: 1 mg/L, adapted for 2 weeks, 7 day batch culture, CD FortiCHO + 8 mM L-glutamine. How it is done: For this experiment, a transgenic CHO cell line, Agarabi CHO (ATCCR CRL-3440™), was adapted for 2 weeks in CD FortiCHO medium supplemented with 8 mM L-glutamine & 1 mg/L human insulin-like growth factor 1 (IGF-1) at 37° C., 8% CO2, at a shaking speed of 130 RPM. Batch culture of 6 flasks was maintained for 7 days where 3 flasks represent technical replicates for the control set (without IGF-1 adaptation) and 3 flasks represent technical replicates for the IGF-1 adapted set. The flasks were seeded with 3E5 viable cells/mL on day 0 and 1 mg/L Insulin Growth Factor was added to the adapted set. Cell count, cell viability, and protein production were measured every 2 days and cell pellets were collected for both control and treatment set on day 7.

In the case of `OO` [hydrogen peroxide], in series [1], the “cell viability compared to control set” value is on record as “reduced”, the “growth rate compared to control set” value is on record as “reduced” and the “heterologous protein productivity compared to control set” value is reported as “slight increase”. Moreover, in series [2], the “number of differentially methylated regions (DMRs)” value came to 122.

Turning to “IGF-1: human insulin-like growth factor 1, media supplement for CHO cells”, the “number of differentially methylated regions (DMRs)” value in series [3] is 289. In addition, in series [4], the “growth rate compared to control set” value is listed as “no significant effect”, the “heterologous protein productivity compared to control set” value was “doubled” and the “viability compared to control set” value is listed as “no significant effect”.
